Nine compounds from patent publication US20070191333A1, “Antibacterial agents” (Warner Lambert Company LLC, priority 2003, published 2007) can be followed below.

Values after ≈ are worked out from the molar mass of the structure shown.

For one assay, the system named is S. aureus UC-76. Put plainly: Antibacterial microtitration MIC, S. aureus UC-76. Particulars: Gram Positive Bacteria; strain UC-76. The class given is cell-based. The protocol:
(§1) Test A—Antibacterial Assays The compounds of the present invention were tested against an assortment of Gram-negative and Gram-positive organisms using standard microtitration techniques (Cohen et. al., Antimicrob., 1985; 28:766; Heifetz, et. al., Antimicrob., 1974; 6:124).
With `Cc1c(N2CC[C@@H]([C@@H](N)CC#N)C2)c(F)cc2c(=O)[nH]c(=O)n(C3CC3)c12` (single isomer, unassigned) [drawing 409], the “Minimum Inhibitory Concentrations S. aureus UC-76” value is 0.5 µg/mL.
`Cc1c(N2CCC(C(N)C(C)(C)C#N)C2)c(F)cc2c(=O)n(N)c(=O)n(C3CC3)c12` (stereo not drawn) [drawing 420]: the “Minimum Inhibitory Concentrations S. aureus UC-76” value is 8 µg/mL.

The assay is the same for the next values; noted with them: Staphylococcus aureus, UC76, Gram Positive Bacteria; strain UC-76; read-out: Minimum Inhibitory Concentrations S. aureus UC-76.
On to `Cc1c(N2CC[C@H]([C@H](N)CC#N)C2)c(F)cc2c(=O)n(N)c(=O)n(C3CC3)c12` (racemic) [drawing 406], for which the MIC is 1 µg/mL (≈ 2.59 µM).
Same read-out and setting: to `Cc1c(N2C[C@H](CNCCC#N)[C@@H](F)C2)c(F)cc2c(=O)n(N)c(=O)n(C3CC3)c12` (racemic) [drawing 414] belongs 2 µg/mL (≈ 4.78 µM); to `Cc1c(N2C[C@@H](CNCCC#N)[C@H](C)C2)c(F)cc2c(=O)n(N)c(=O)n(C3CC3)c12` (single isomer, unassigned), 0.25 µg/mL (≈ 0.603 µM); to `Cc1c(N2C[C@H](CNCCC#N)[C@@H](C)C2)c(F)cc2c(=O)n(N)c(=O)n(C3CC3)c12` (single isomer, unassigned), 0.25 µg/mL (≈ 0.603 µM).
In the case of `Cc1c(N2CC[C@@H]([C@@H](N)CC#N)C2)c(F)cc2c(=O)n(N)c(=O)n(C3CC3)c12` (single isomer, unassigned) [drawing 407], the MIC amounted to 0.125 µg/mL (≈ 0.323 µM).
Turning to `Cc1c(N2CC[C@@H]([C@@H](N)CC#N)C2)c(F)cc2c(=O)[nH]c(=O)n(C3CC3)c12` (single isomer, unassigned) [drawing 408], the MIC turned out to be 0.25 µg/mL (≈ 0.673 µM).
The same measure, in the same setting: to `Cc1c(N2CC[C@@H]([C@H](C)NCCC#N)C2)c(F)cc2c(=O)n(N)c(=O)n(C3CC3)c12` (single isomer, unassigned) [drawing 411] belongs 0.06 µg/mL (≈ 0.145 µM).

The test system of a further assay is S. pneumo SV-1. The assay is described as follows: Antibacterial microtitration MIC, S. pneumo SV-1. The class given is cell-based. Conditions: Gram Positive Bacteria; strain SV-1. The procedure:
as §1
Take `Cc1c(N2CC[C@@H]([C@@H](N)CC#N)C2)c(F)cc2c(=O)[nH]c(=O)n(C3CC3)c12` (single isomer, unassigned) [drawing 409]: the “Minimum Inhibitory Concentrations S. pneumo SV-1” value amounted to 0.125 µg/mL.
For `Cc1c(N2CCC(C(N)C(C)(C)C#N)C2)c(F)cc2c(=O)n(N)c(=O)n(C3CC3)c12` (stereo not drawn) [drawing 420], the “Minimum Inhibitory Concentrations S. pneumo SV-1” value turned out to be 8 µg/mL.

Staying with this assay, now noted: Gram Positive Bacteria; strain SV-1; read-out: Minimum Inhibitory Concentrations S. pneumo SV-1.
Take `Cc1c(N2CC[C@H]([C@H](N)CC#N)C2)c(F)cc2c(=O)n(N)c(=O)n(C3CC3)c12` (racemic) [drawing 406]: the MIC was determined as 0.5 µg/mL (≈ 1.29 µM).
For `Cc1c(N2C[C@H](CNCCC#N)[C@@H](F)C2)c(F)cc2c(=O)n(N)c(=O)n(C3CC3)c12` (racemic) [drawing 414], the MIC was 1 µg/mL (≈ 2.39 µM).
Take `Cc1c(N2C[C@@H](CNCCC#N)[C@H](C)C2)c(F)cc2c(=O)n(N)c(=O)n(C3CC3)c12` (single isomer, unassigned): the MIC was found to be 0.06 µg/mL (≈ 0.145 µM).
As for `Cc1c(N2C[C@H](CNCCC#N)[C@@H](C)C2)c(F)cc2c(=O)n(N)c(=O)n(C3CC3)c12` (single isomer, unassigned), the MIC came to 0.125 µg/mL (≈ 0.302 µM).
As to `Cc1c(N2CC[C@@H]([C@@H](N)CC#N)C2)c(F)cc2c(=O)n(N)c(=O)n(C3CC3)c12` (single isomer, unassigned) [drawing 407], the MIC came to 0.06 µg/mL (≈ 0.155 µM).
Still for that read-out and setting: for `Cc1c(N2CC[C@@H]([C@@H](N)CC#N)C2)c(F)cc2c(=O)[nH]c(=O)n(C3CC3)c12` (single isomer, unassigned) [drawing 408] the value was 0.125 µg/mL (≈ 0.337 µM).
On the same count and under the same terms, to `Cc1c(N2CC[C@@H]([C@H](C)NCCC#N)C2)c(F)cc2c(=O)n(N)c(=O)n(C3CC3)c12` (single isomer, unassigned) [drawing 411] belongs 0.015 µg/mL (≈ 0.0362 µM).

The next assay relates to E. faecalis MGH-2. The assay is described as follows: Antibacterial microtitration MIC, E. faecalis MGH-2. The class given is cell-based. Conditions: Enterococcus faecalis, MGH2, Gram Positive Bacteria; strain MGH-2; read-out: Minimum Inhibitory Concentrations E. faecalis MGH-2. The procedure:
as §1
As to `Cc1c(N2CC[C@H]([C@H](N)CC#N)C2)c(F)cc2c(=O)n(N)c(=O)n(C3CC3)c12` (racemic) [drawing 406], the MIC was determined as 4 µg/mL (≈ 10.4 µM).
For the compound `Cc1c(N2C[C@H](CNCCC#N)[C@@H](F)C2)c(F)cc2c(=O)n(N)c(=O)n(C3CC3)c12` (racemic) [drawing 414], the MIC amounted to 4 µg/mL (≈ 9.56 µM).
Turning to `Cc1c(N2C[C@@H](CNCCC#N)[C@H](C)C2)c(F)cc2c(=O)n(N)c(=O)n(C3CC3)c12` (single isomer, unassigned), the MIC was found to be 0.5 µg/mL (≈ 1.21 µM).
Take `Cc1c(N2C[C@H](CNCCC#N)[C@@H](C)C2)c(F)cc2c(=O)n(N)c(=O)n(C3CC3)c12` (single isomer, unassigned): the MIC stood at 0.5 µg/mL (≈ 1.21 µM).
Regarding `Cc1c(N2CC[C@@H]([C@@H](N)CC#N)C2)c(F)cc2c(=O)n(N)c(=O)n(C3CC3)c12` (single isomer, unassigned) [drawing 407], the MIC turned out to be 0.25 µg/mL (≈ 0.647 µM).
Regarding `Cc1c(N2CC[C@@H]([C@@H](N)CC#N)C2)c(F)cc2c(=O)[nH]c(=O)n(C3CC3)c12` (single isomer, unassigned) [drawing 408], the MIC stood at 0.5 µg/mL (≈ 1.35 µM).
As for `Cc1c(N2CC[C@@H]([C@H](C)NCCC#N)C2)c(F)cc2c(=O)n(N)c(=O)n(C3CC3)c12` (single isomer, unassigned) [drawing 411], the MIC is 0.125 µg/mL (≈ 0.302 µM).

The same assay, now with this note: Gram Positive Bacteria; strain MGH-2.
As for `Cc1c(N2CC[C@@H]([C@@H](N)CC#N)C2)c(F)cc2c(=O)[nH]c(=O)n(C3CC3)c12` (single isomer, unassigned) [drawing 409], the “Minimum Inhibitory Concentrations E. faecalis MGH-2” value is 1 µg/mL.
As for `Cc1c(N2CCC(C(N)C(C)(C)C#N)C2)c(F)cc2c(=O)n(N)c(=O)n(C3CC3)c12` (stereo not drawn) [drawing 420], the “Minimum Inhibitory Concentrations E. faecalis MGH-2” value stood at 16 µg/mL.

A further assay has as its system S pyogenes C203. Put plainly: Antibacterial microtitration MIC, S pyogenes C203. The class given is cell-based. Particulars: Gram Positive Bacteria; strain C203. The protocol: as §1
`Cc1c(N2CC[C@@H]([C@@H](N)CC#N)C2)c(F)cc2c(=O)[nH]c(=O)n(C3CC3)c12` (single isomer, unassigned) [drawing 409]: the “Minimum Inhibitory Concentrations S pyogenes C203” value is 0.25 µg/mL.
On to `Cc1c(N2CCC(C(N)C(C)(C)C#N)C2)c(F)cc2c(=O)n(N)c(=O)n(C3CC3)c12` (stereo not drawn) [drawing 420], for which the “Minimum Inhibitory Concentrations S pyogenes C203” value came out at 16 µg/mL.

The assay is the same for the next values; noted with them: Gram Positive Bacteria; strain C203; read-out: Minimum Inhibitory Concentrations S pyogenes C203.
For the compound `Cc1c(N2CC[C@H]([C@H](N)CC#N)C2)c(F)cc2c(=O)n(N)c(=O)n(C3CC3)c12` (racemic) [drawing 406], the MIC turned out to be 0.5 µg/mL (≈ 1.29 µM).
Turning to `Cc1c(N2C[C@H](CNCCC#N)[C@@H](F)C2)c(F)cc2c(=O)n(N)c(=O)n(C3CC3)c12` (racemic) [drawing 414], the MIC amounted to 1 µg/mL (≈ 2.39 µM).
Regarding `Cc1c(N2C[C@@H](CNCCC#N)[C@H](C)C2)c(F)cc2c(=O)n(N)c(=O)n(C3CC3)c12` (single isomer, unassigned), the MIC came out at 0.06 µg/mL (≈ 0.145 µM).
As to `Cc1c(N2C[C@H](CNCCC#N)[C@@H](C)C2)c(F)cc2c(=O)n(N)c(=O)n(C3CC3)c12` (single isomer, unassigned), the MIC amounted to 0.125 µg/mL (≈ 0.302 µM).
Regarding `Cc1c(N2CC[C@@H]([C@@H](N)CC#N)C2)c(F)cc2c(=O)n(N)c(=O)n(C3CC3)c12` (single isomer, unassigned) [drawing 407], the MIC stood at 0.03 µg/mL (≈ 0.0776 µM).
With `Cc1c(N2CC[C@@H]([C@@H](N)CC#N)C2)c(F)cc2c(=O)[nH]c(=O)n(C3CC3)c12` (single isomer, unassigned) [drawing 408], the MIC is 0.125 µg/mL (≈ 0.337 µM).
Take `Cc1c(N2CC[C@@H]([C@H](C)NCCC#N)C2)c(F)cc2c(=O)n(N)c(=O)n(C3CC3)c12` (single isomer, unassigned) [drawing 411]: the MIC turned out to be 0.03 µg/mL (≈ 0.0724 µM).
